Positions of bridges follow the written chain, without caps; N, C: chain ends. Non-standard residues stand in square brackets, D forms with d. Residues, ends and D or L forms follow the SMILES beside them. *: point of attachment. X1 = CC1(C)C(/C=C/C=C/C=C/C=C2/N(CCC(=O)*)c3ccc4ccccc4c3C2(C)C)=[N+](CCC(=O)[O-])c2ccc3ccccc3c21
Key:
pANXA2 = pANXA2 (Homo sapiens, UniProt P07355); assay: Microscale thermophoresis (MST), pANXA2 binding; conditions: read-out: apparent Kd, pANXA2
Text: Recombinant proteins and antibodies. Recombinant annexin A2, annexin A2 with glutathione-S-transferase (GST) tag, annexin A1, and annexin A3 proteins were purchased from MyBioSource, Inc. (San Diego, CA, USA). Purified ANXA2 protein and purified pANXA2 protein were gifts from Dr. Gabriel Bimme (Beth Israel Deaconess Medical Center, Boston, MA). Rabbit monoclonal anti-annexin A2 antibody (D11G2, #8235), Rabbit monoclonal anti-Rab5 (C8B1, #3547), and rabbit monoclonal anti-Rab7 (D95F2, #936 7) primary antibodies were purchased from Cell Signaling Technology, Inc. (Danvers, MA, USA). Mouse monoclonal anti-β-actin 2A3 (sc-517582), mouse monoclonal anti-pANXA2 antibody (11.Tyr 24) (sc-135752), rabbit polyclonal anti-NOS2 (C-19, sc-649), rabbit polyclonal anti-ARG1 (H-52, sc-20150) antibodies, and protein A/G agarose were purchased from Santa Cruz Biotechnology, Inc. (Dallas, TX, USA). […]
MST was performed using the Monolith NT.115 (Nanotemper Technologies, Munich, Germany). […] Fluorescence was assessed in MST-2 buffer (50 mM Tris-HCl, pH 7.4; 150 mM NaCl; 10 mM MgCl2). […] The apparent Kd values were calculated from fragment concentration-dependent changes in normalized fluorescence (Fraction Bound) of LS301 after 5 seconds of thermophoresis based on mass action law using the MO Affinity Analysis v2.3 software.

[1] = molecular target: T1, ANXA2 over ANXA1 and ANXA3 (Homo sapiens, UniProt P07355); assay: Annexin selectivity, fluorescent gel binding; conditions: ANXA2 vs ANXA1 and ANXA3
T1 construct: GST; purchased MyBioSource, Inc
T1 sequence (P07355 whole entry): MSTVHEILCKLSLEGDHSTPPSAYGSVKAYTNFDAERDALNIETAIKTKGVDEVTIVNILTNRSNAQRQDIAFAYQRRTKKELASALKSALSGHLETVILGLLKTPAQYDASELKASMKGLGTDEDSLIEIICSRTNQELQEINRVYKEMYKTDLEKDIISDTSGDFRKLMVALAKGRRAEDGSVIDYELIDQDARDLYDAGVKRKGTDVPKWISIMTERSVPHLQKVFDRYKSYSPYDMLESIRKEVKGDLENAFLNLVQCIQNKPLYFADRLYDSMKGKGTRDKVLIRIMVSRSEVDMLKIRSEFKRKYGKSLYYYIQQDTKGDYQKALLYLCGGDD
Protocol: For fluorescent gel binding experiments, 1 μg recombinant annexin A2 protein was incubated with LS301 or cypate (10 μM) at 37° C. for the periods indicated. Samples were subjected to SDS-PAGE on precast gels (Bio-Rad, Hercules, CA), and gels were imaged for near-infrared fluorescence (800 nm) using a Pearl Small Animal Imager (LI-COR Biosciences, Lincoln, NE, USA). For competitive binding experiments, Annexin A2-GST, annexin A1, or annexin A3 (1.0 μg protein per sample) was pre-incubated with or without 2.5 mM of LS637 (non-fluorescent LS301 analog; blocking peptide) in binding buffer (25 mM Tris-HCl pH 7.4, 150 mM NaCl, 1 mM MgCl2, 1 mM CaCl2) for 1 hour at 37° C. Ten μM. LS301 was then added to each sample. After incubation for 2 hours at 37° C., proteins were subjected to SDS-PAGE and imaged fluorescently. For some experiments, LS301 was incubated with 4T1 tumor cells before SDS-PAGE.

[2] = test system: cells expressing wild-type ANXA2 or mutant ANXA2 (Y23A); assay: LS301 internalization with insulin in cells expressing wild-type or mutant ANXA2 (Y23A); type: cell-based
Protocol: For LS301 cell internalization studies involving insulin treatment, cells were grown on Lab-Tek slides overnight. HEK 293T cells (or in some cases 4T1 cells) were maintained in DMEM medium supplemented with 10% fetal bovine serum and 100 units/mL penicillin. After DNA transfection, the HEK 293TAnxa2-WT-GFP and HEK 293TAnxa2-Y23A-GFP cells were maintained in Dulbecco's Modified Eagle's medium (DMEM) medium with 500 μg/mL G418, 10% fetal bovine serum (FBS), and 100 units/mL penicillin. The medium was changed, and cells were grown in serum-starved conditions overnight. Cells were then cultivated with or without 100 nM insulin for 4 h. Then 1 μM of LS301 was added to each sample to incubated for 4 hours or 24 hours at 37° C. Cells were imaged using an FV1000 confocal microscope, and the mean fluorescence intensities (Ex/Em=488/495 nm; Ex/Em=590/617 nm; Ex/Em=780/805-830 nm) were determined using the FV1000 software.

Chain of pANXA2 (P07355 2-339 limits assumed): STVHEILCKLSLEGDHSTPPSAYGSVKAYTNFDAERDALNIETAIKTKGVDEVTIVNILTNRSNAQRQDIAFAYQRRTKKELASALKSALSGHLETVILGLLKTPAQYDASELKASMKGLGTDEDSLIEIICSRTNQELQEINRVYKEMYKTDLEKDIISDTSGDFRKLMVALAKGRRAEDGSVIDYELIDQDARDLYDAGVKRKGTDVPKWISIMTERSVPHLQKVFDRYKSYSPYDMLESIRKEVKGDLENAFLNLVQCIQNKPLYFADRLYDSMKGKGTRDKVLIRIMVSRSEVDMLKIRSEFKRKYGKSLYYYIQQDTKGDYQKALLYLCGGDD

## CC1(C)C(/C=C/C=C/C=C/C=C2/N(CCC(=O)N[C@@H]3CSSC[C@@H](C(=O)N[C@@H](CCCCN)C(=O)O)NC(=O)[C@@H]4CCCN4C(=O)[C@H](CO)NC(=O)[C@H](CC(=O)O)NC(=O)[C@H](CCCNC(=N)N)NC(=O)CNC3=O)c3ccc4ccccc4c3C2(C)C)=[N+](CCC(=O)[O-])c2ccc3ccccc3c21 [LS301, cypate-cyclic (DCys-Gly-Arg-Asp-Ser-Pro-Cys)-Lys-OH] (X1-[dC]GRDSPCK-OH; disulfide 1-7)
pANXA2
  Kd: 75 ± 2 pM
[1]
  annexin binding preference: preferentially targets ANXA2 over ANXA1 and ANXA3
[2]; insulin stimulation
  cellular uptake of LS301, mutant ANXA2 (Y23A) cells: minimal LS301 uptake
[2]; stimulation with insulin
  cellular uptake of LS301, wild-type ANXA2 cells: increased pANXA2 expression and cellular uptake of LS301
